Measurements: PubChem BioAssay AID330 (DTP/NCI, 2004)
Values joined by “and” are separate entries in the source; they are usually repeats but may differ in a detail not shown here. Equal entries are not always repeated. Inconclusive results and toxic doses are left out.

System: P388 leukemia ip, CD2F1 mice, survival T/C
Assay: NCI In Vivo Anticancer Drug Screen. Data for tumor model P388 Leukemia (intraperitoneal) in CD2F1 (CDF1) mice
Conditions: endpoint: median survival time, higher = longer survival
Summary of the method: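 Mice carrying the transplanted tumor received test compound or vehicle. Survival was recorded in each group, and the value is the treated-group measurement divided by that of the vehicle-treated control group.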

[1] = dose: 50.0 mg/kg/injection, schedule: Q01DX005 (ip), vehicle: saline with Tween-80
[2] = dose: 100.0 mg/kg/injection, schedule: Q01DX005 (ip), vehicle: saline with Tween-80
[3] = dose: 200.0 mg/kg/injection, schedule: Q01DX005 (ip), vehicle: saline with Tween-80
[4] = dose: 60.0 mg/kg/injection, schedule: Q01DX005 (ip), vehicle: saline with Tween-80
[5] = dose: 120.0 mg/kg/injection, schedule: Q01DX005 (ip), vehicle: saline with Tween-80
[6] = dose: 100.0 mg/kg/injection, schedule: Q01DX009 (ip), vehicle: saline with Tween-80
[7] = dose: 200.0 mg/kg/injection, schedule: Q01DX009 (ip), vehicle: saline with Tween-80
[8] = dose: 50.0 mg/kg/injection, schedule: Q01DX009 (ip), vehicle: saline with Tween-80

With `COC(=O)c1ccc(N(C)CC/C(CN)=N/NC(N)=O)cc1` the T/C [1] was 99 % of control, the T/C [2] was 91 % of control and the T/C [3] was 87 % of control.

For `CNC(=O)CCl`, the T/C (dose: 100.0 mg/kg/injection, schedule: Q04DX003 (ip), vehicle: saline) was 99 % of control and the T/C (dose: 200.0 mg/kg/injection, schedule: Q04DX003 (ip), vehicle: saline) was 99 % of control.

For `COc1ccc2c(=O)c(-c3ccc(OC)c(OC)c3)c(C)oc2c1`, the T/C [4] was 94 % of control, the T/C [5] was 91 % of control and the T/C (dose: 240.0 mg/kg/injection, schedule: Q01DX005 (ip), vehicle: saline with Tween-80) was 86 % of control.

For `CCOC(=O)NC(C)(C)CN(C(=O)OCC)c1ccccc1`, the T/C [6] was 94 % of control, the T/C [7] was 116 % of control and the T/C (dose: 200.0 mg/kg/injection, schedule: Q04DX003 (ip), vehicle: saline with Tween-80) was 95 % of control. For the same compound, the T/C (dose: 400.0 mg/kg/injection, schedule: Q01DX009 (ip), vehicle: saline with Tween-80) was 116 % of control and the T/C (dose: 400.0 mg/kg/injection, schedule: Q04DX003 (ip), vehicle: saline with Tween-80) was 104 % of control.

`O=C(NC(Cc1c[nH]c2ccccc12)C(=O)O)c1ccccc1[N+](=O)[O-]` (centres undefined) was tested, and the T/C (dose: 6.25 mg/kg/injection, schedule: Q01DX005 (ip), vehicle: Klucel (hydroxypropylcellulose) (HPC)) was 93 % of control, the T/C (dose: 12.5 mg/kg/injection, schedule: Q01DX005 (ip), vehicle: Klucel (hydroxypropylcellulose) (HPC)) was 108 % of control and the T/C (dose: 25.0 mg/kg/injection, schedule: Q01DX005 (ip), vehicle: Klucel (hydroxypropylcellulose) (HPC)) was 97 % of control.

In the case of `Cc1c2ccncc2c(C)c2c1[nH]c1ccc(O)cc12`, the T/C (dose: 6.25 mg/kg/injection, schedule: Q01DX009 (ip), vehicle: saline) is reported as 111 % of control, the T/C (dose: 6.25 mg/kg/injection, schedule: Q01DX009 (ip), vehicle: suspension in saline) is reported as 150 % of control and the T/C (dose: 12.5 mg/kg/injection, schedule: Q01DX009 (ip), vehicle: saline) is reported as 169 % of control. The T/C (dose: 12.5 mg/kg/injection, schedule: Q01DX009 (ip), vehicle: suspension in saline) was 167 % of control.

For `CC(=O)OC1(C)SCCN1C(N)=O` (centres undefined), the T/C (dose: 50.0 mg/kg/injection, schedule: Q01DX009 (ip), vehicle: Klucel (hydroxypropylcellulose) (HPC)) was 99 % of control, the T/C (dose: 100.0 mg/kg/injection, schedule: Q01DX009 (ip), vehicle: Klucel (hydroxypropylcellulose) (HPC)) was 104 % of control and the T/C (dose: 200.0 mg/kg/injection, schedule: Q01DX009 (ip), vehicle: Klucel (hydroxypropylcellulose) (HPC)) was 100 % of control.

For `COc1ccc(CCNC(=O)C(=O)c2c[nH]c3ccccc23)cc1OC`, the T/C [1] was 90 % of control, the T/C [2] was 88 % of control and the T/C [3] was 89 % of control.

With `COc1ccc(NC(=O)Oc2ccc3c(C)cc(=O)oc3c2)c(OC)c1` (tested in a mixture with another compound) the T/C [4] was 106 % of control and 117 % of control and the T/C [5] was 120 % of control and 121 % of control.

With `CC(C)(C)N=C(CCNc1ccccc1Cl)Nc1ccccc1Cl` the T/C [8] was 103 % of control, the T/C [6] was 103 % of control and the T/C [7] was 86 % of control.

`c1ccc(-c2nn(-c3ccccc3)[n+](-c3ccccc3)n2)cc1` was tested, and the T/C (dose: 1.25 mg/kg/injection, schedule: Q01DX009 (ip), vehicle: saline with Tween-80) was 100 % of control and the T/C (dose: 2.5 mg/kg/injection, schedule: Q01DX009 (ip), vehicle: saline with Tween-80) was 90 % of control.

In the case of `NC(CCC(=O)OCCn1c2ccccc2c2ccccc21)C(=O)O` (centres undefined), the T/C (dose: 25.0 mg/kg/injection, schedule: Q01DX009 (ip), vehicle: saline with Tween-80) is reported as 97 % of control, the T/C [8] is reported as 93 % of control and the T/C [6] is reported as 97 % of control.

`Cn1cc(N=P(c2ccccc2)(c2ccccc2)c2ccccc2)c(=O)n(C)c1=O` was tested, and the T/C (dose: 15.0 mg/kg/injection, schedule: Q01DX005 (ip), vehicle: Klucel (hydroxypropylcellulose) (HPC)) was 114 % of control, the T/C (dose: 30.0 mg/kg/injection, schedule: Q01DX005 (ip), vehicle: Klucel (hydroxypropylcellulose) (HPC)) was 105 % of control and the T/C (dose: 60.0 mg/kg/injection, schedule: Q01DX005 (ip), vehicle: Klucel (hydroxypropylcellulose) (HPC)) was 107 % of control.

With `CCCCC(CC)COCCCNCC(=O)O` (centres undefined) the T/C (dose: 60.0 mg/kg/injection, schedule: Q01DX005 (ip), vehicle: saline) was 102 % of control and the T/C (dose: 120.0 mg/kg/injection, schedule: Q01DX005 (ip), vehicle: saline) was 107 % of control.

For `CCC(Oc1c2ccoc2c(OC)c2oc(C)cc(=O)c12)C(=O)OCCN1CCOCC1` (centres undefined), the T/C [1] was 102 % of control, the T/C [2] was 104 % of control and the T/C [3] was 98 % of control.
